Test results from patent US10449547B2, “Preparation of a powdery pharmaceutical composition by means of cryo-milling” (GRÜNENTHAL GMBH, priority 2013, dated 2019).

Experiment: Relative alpha-tocopherol content within blend before and after cryo-milling
Format: physicochemical
Excerpt: Relative Alpha-Tocopherol Content within Blend Before and after Cryo-Milling: […]

Cc1c(C)c2c(c(C)c1O)CC[C@@](C)(CCC[C@H](C)CCC[C@H](C)CCCC(C)C)O2 [alpha-tocopherol]
degradation of alpha-tocopherol with cryo-milling process: did not degrade
